Data on 35 molecules can be found in patent publication US7691805B2, “Antimicrobial compounds” (Neobiotics AB, priority 2004, dated 2010).

Non-standard residues stand in square brackets, D forms with d. No end group written: not given here. dPhg = N[C@@H](C(=O)O)c1ccccc1; Phg = N[C@H](C(=O)O)c1ccccc1; code Z = not defined here; Orn = NCCC[C@H](N)C(=O)O; Mpa = O=C(O)CCS

The subject of one experiment is bacteria. Description: Anti-bacterial activity (tables of particularly interesting compounds). The class given is cell-based. Further details: key: + indicates that the compound show effects.
Another experiment relates to virus. Description: Anti-viral activity (tables of particularly interesting compounds). It is filed as cell-based. Set-up: key: + indicates that the compound show effects. The note with it: compounds listed by R4 or R1 residue.
Experiment [1] relates to Staphylococci incl. multiresistant MRSA. Description: Agar well diffusion. The settings on record: 40 ul of 1 mg/ml in DMSO per well. For orientation: Agar diffusion results depend on both activity and mobility in agar.
Experiment [2] concerns CNS incl. resistant and multiresistant MRSE. As to the kind of experiment: Agar well diffusion. The settings on record: 40 ul of 1 mg/ml in DMSO per well.
Another experiment relates to Streptococcus: group B. Description: Agar well diffusion. The settings on record: 40 ul of 1 mg/ml in DMSO per well.
The test system of the next experiment is Streptococcus: group C. Description: Agar well diffusion. The settings on record: 40 ul of 1 mg/ml in DMSO per well.
In a further experiment the test system is Streptococcus: group G. As to the kind of experiment: Agar well diffusion. The settings on record: 40 ul of 1 mg/ml in DMSO per well.
For another experiment, the system named is Streptococcus: group A. As to the kind of experiment: Agar well diffusion. The settings on record: 40 ul of 1 mg/ml in DMSO per well.
The subject of a further experiment is L. monocytogenes. As to the kind of experiment: Agar well diffusion. The note with it: 40 ul of 1 mg/ml in DMSO per well.
The test system of a further experiment is S. pneumoniae. Description: Agar well diffusion. The settings on record: 40 ul of 1 mg/ml in DMSO per well.
In experiment [3] the test system is E. coli and other Gram-negatives. As to the kind of experiment: Agar well diffusion. The note with it: E. coli and other Gram-negatives; 40 ul of 1 mg/ml in DMSO per well.
The subject of experiment [4] is α-haemolytic Streptococci. Description: Agar well diffusion. The settings on record: 40 ul of 1 mg/ml in DMSO per well.
In another experiment the test system is MRSA. Description: Growth inhibition of clinical isolates. The note with it: approximately 100 strains of MRSA, several with additional resistance markers.
Experiment [5] has as its system HSV-1 F (Herpes Simplex Virus). Description: Antiviral inhibition analysis and plaque counting test in GMK AH 1 cells. The class given is cell-based. The note with it: 0.4 mM in 1% DMSO; analysed in the same way as Cystapep 1.
A further experiment deals with poliovirus type 1. It is filed as cell-based. The settings on record: 0.4 mM in 1% DMSO; analysed in the same way as Cystapep 1.
Setting [6] is: compounds listed by R4 or R1 residue.
Setting [7] is: peptide analogues and cyclic compounds.

In the case of `CC(=O)N[C@H](Cc1ccccc1)C(=O)NCC(NC(=O)C(CC(C)C)NC(=O)C(CCCNC(=N)N)NC(=O)OCc1ccccc1)C(C)C` (stereo partly drawn) [Acetyl-D-phenylalanoyl], in the experiment with bacteria (setting [6]), the “Activity Anti-bacterial” value is “+”. For the same molecule, in the experiment with virus, the “Activity Anti-viral” value was “+”.

Turning to `CC(C)CC(NC(=O)C(CCCNC(=N)N)NC(=O)OCc1ccccc1)C(=O)NC(CNC(=O)CCl)C(C)C` (centres unmarked) [Chloroacetyl], in the experiment with bacteria (setting [6]), the “Activity Anti-bacterial” value was “+”.

On to cyclo(FRLVF[Orn]LV), for which, in the experiment on bacteria (setting [7]), the “Activity Anti-bacterial” value is “+”.

With `CC(=O)NC(Cc1ccccc1)C(=O)NCC(NC(=O)C(CC(C)C)NC(=O)C(CCCNC(=N)N)NC(=O)OCc1ccccc1)C(C)C` (centres unmarked) [(AcPhe^5)Cp1], the antibacterial effect result (in [1]; in experiment [2]; in the experiment on Streptococcus: group B; with Streptococcus: group C; in the experiment with Streptococcus: group G; in the experiment with Streptococcus: group A) was “+” throughout. For the same molecule, the antibacterial effect result in the experiment on L. monocytogenes is “+”; in the experiment on S. pneumoniae, “+”; in [3], “−”; in [4], “−”. In addition, the “growth inhibition of MRSA strains” value in the experiment with MRSA is “strongly inhibited in their growth”.

For the molecule `C=C(C(=O)NCC(NC(=O)C(CC(C)C)NC(=O)C(CCCNC(=N)N)NC(=O)OCc1ccccc1)C(C)C)c1ccncc1` (centres unmarked) [2-(4-pyridyl)acroyl], the “Activity Anti-bacterial” value in the experiment with bacteria (setting [6]) is listed as “+”.

With `CC(C)CC(NC(=O)C(CCCNC(=N)N)NC(=O)CCc1ccccc1)C(=O)NC(CNC(=O)/C=C/c1ccccc1)C(C)C` (centres unmarked) [Compound 3-phenylpropionyl], the “Activity Anti-bacterial” value in the experiment with bacteria (setting [6]) is reported as “+”.

Take `CC(C)CC(NC(=O)C(CCCNC(=N)N)NC(=O)OCc1ccccc1)C(=O)NC(CNC(=O)Cc1ccccc1)C(C)C` (centres unmarked) [n = 1]: the “Activity Anti-bacterial” value with bacteria (setting [6]) is on record as “+”.

With `CC(C)CC(CNC(=O)/C=C/c1ccccc1)NC(=O)C(CC(C)C)NC(=O)C(CCCNC(=N)N)NC(=O)OCc1ccccc1` (centres unmarked) [(Leu^4)Cp1], the “effect against HSV-1” value in experiment [5] is “found to have effect”. For the same molecule, the effect against polio entry with poliovirus type 1 was “found to have effect”. Moreover, the antibacterial effect entry (in experiment [1]; in experiment [2]; in the experiment on Streptococcus: group B; in the experiment with Streptococcus: group C; in the experiment with Streptococcus: group G; with Streptococcus: group A) was “+” throughout. The antibacterial effect result in the experiment on S. pneumoniae is on record as “+”; in [3], “−”; in [4], “−”. For the same molecule, the “growth inhibition of MRSA strains” value in the experiment with MRSA was “strongly inhibited in their growth”.

For “Z-Arg-Leu-Val-Phe-NH2 ({code Z}-RLVF-NH2; reading uncertain; also: printed as Z-Arg-Leu-Val-Phe-NH2)”, the “Activity Anti-bacterial” value in the experiment with bacteria (setting [7]) is recorded as “+”.

Turning to Z-Arg-Leu-Val-cinnamoylamide, the “Activity Anti-bacterial” value in the experiment with bacteria (setting [7]) is reported as “+”.

In the case of `CC(C)CC(NC(=O)C(CCCNC(=N)N)NC(=O)OCc1ccccc1)C(=O)NC(CNC(=O)[C@@H](O)Cc1ccccc1)C(C)C` (stereo partly drawn) [Compound L-2-hydroxy-3-phenylpropionyl], the “Activity Anti-bacterial” value with bacteria (setting [6]) is on record as “+”.

Take `CC(C)C(CNC(=O)/C=C/c1ccccc1)NC(=O)CNC(=O)C(CCCNC(=N)N)NC(=O)OCc1ccccc1` (centres unmarked) [(Gly^3)Cp1]: the antibacterial effect entry in experiment [1] is “+”; in [2], “+”; in the experiment on Streptococcus: group B, “+”; with Streptococcus: group C it was “+”; in [4] it was “−”. Also, the “growth inhibition of MRSA strains” value in the experiment with MRSA is reported as “strongly inhibited in their growth”.

Take “cyclo(D-Tyr-Arg-Leu-Val-D-Tyr-Arg-Leu-Val) (chain 1 [dY]RLV; chain 2 [dY]RLV; also: two chains joined into one cyclic octapeptide, head-to-tail to a chain's N/C-terminus)”: the “Activity Anti-bacterial” value in the experiment with bacteria (setting [7]) is reported as “+”.

For `CC(=O)NC(CCCNC(=N)N)C(=O)NC(CC(C)C)C(=O)NC(CNC(=O)/C=C/c1ccccc1)C(C)C` (centres unmarked) [Acetyl], the “Activity Anti-bacterial” value in the experiment on bacteria (setting [6]) is listed as “+”.

With cyclo([dPhg]RLV[dPhg]RLV), the “Activity Anti-bacterial” value in the experiment with bacteria (setting [7]) is reported as “+”.

For the molecule cyclo([Phg]RLV[Phg]RLV), the “Activity Anti-bacterial” value in the experiment on bacteria (setting [7]) is “+”.

`CC(C)CC(NC(=O)C(CCCNC(=N)N)NC(=O)OCc1ccccc1)C(=O)NC(CNC(=O)[C@H](Br)Cc1ccccc1)C(C)C` (stereo partly drawn) [Compound D-2-bromo-3-phenylpropionyl]: the “Activity Anti-bacterial” value in the experiment with bacteria (setting [6]) was “+”.

Turning to `CC(C)CC(NC(=O)C(CCCNC(=N)N)NC(=O)CCCc1ccccc1)C(=O)NC(CNC(=O)/C=C/c1ccccc1)C(C)C` (centres unmarked) [Compound 4-phenylbutyryl], the “Activity Anti-bacterial” value with bacteria (setting [6]) was “+”.

Regarding `CC(C)CC(NC(=O)C(CCCNC(=N)N)NC(=O)OCc1ccccc1)C(=O)NC(CNC(=O)C=Cc1ccc(-c2ccccc2)cc1)C(C)C` (centres unmarked) [Compound 4-phenylcinnamoyl], the “Activity Anti-bacterial” value in the experiment with bacteria (setting [6]) is recorded as “+”.

On to `CC(C)CC(NC(=O)C(CCCNC(=N)N)NC(=O)OCc1ccccc1)C(=O)NC(CNC(=O)/C=C/c1ccccc1)Cc1ccccc1` (centres unmarked) [(Phe^4)Cp1], for which the “effect against HSV-1” value in experiment [5] is recorded as “found to have effect”. Besides, in the experiment on poliovirus type 1, the effect against polio result is “found to have effect”. Besides, the antibacterial effect entry (in experiment [1]; in experiment [2]; with Streptococcus: group B; in the experiment on Streptococcus: group C; in the experiment with Streptococcus: group G; in the experiment with Streptococcus: group A) was “+” throughout. Moreover, the figures for the antibacterial effect result (in the experiment on S. pneumoniae; in experiment [3]; in [4]) were “+”, “−” and “−”, respectively. For the same molecule, the “growth inhibition of MRSA strains” value in the experiment with MRSA is on record as “strongly inhibited in their growth”.

For `CC(C)CC(NC(=O)C(CCCNC(=N)N)NC(=O)OCc1ccccc1)C(=O)NC(CNC(=O)/C=C/c1ccccc1)C(C)C` (stereo not drawn) [trans-cinnamoyl], the “Activity Anti-viral” value in the experiment on virus is “+”.

Turning to “cyclo(Tyr-Arg-Leu-Val-Tyr-Arg-Leu-Val) (YRLVYRLV; cyclic; printed: Tyr-Arg-Leu-Val-Tyr-Arg-Leu-Val)”, the “Activity Anti-bacterial” value in the experiment with bacteria (setting [7]) is “+”.

Consider `CC(C)CC(NC(=O)C(CCCNC(=N)N)NC(=O)OCc1ccccc1)C(=O)NC(CNC(=O)/C=C/S(=O)(=O)Cc1ccccc1)C(C)C` (stereo not drawn) [trans-3-benzylsulphonylacroyl], for which the “Activity Anti-bacterial” value in the experiment with bacteria (setting [6]) is recorded as “+”.

Regarding `CC(C)CC(NC(=O)C(CCCNC(=N)N)NC(=O)OCc1ccccc1)C(=O)NC(CNC(=O)[C@H](O)Cc1ccccc1)C(C)C` (stereo partly drawn) [Compound D-2-hydroxy-3-phenylpropionyl], the “Activity Anti-bacterial” value in the experiment on bacteria (setting [6]) was “+”.

Consider “Mpa-Phe-Arg-Leu-Val-Phe-Cys-NH2 ([Mpa]FRLVFC-NH2; cysteine pairing not given here) [footnote: Mpa-Phe indicates 3-phenylpropionyl]”, for which, in the experiment with bacteria (setting [7]), the “Activity Anti-bacterial” value is on record as “+”.

For `CC(C)CC(NC(=O)C(CCCNC(=N)N)NC(=O)Cc1ccccc1)C(=O)NC(CNC(=O)/C=C/c1ccccc1)C(C)C` (centres unmarked) [Phenylacetyl], the “Activity Anti-bacterial” value in the experiment on bacteria (setting [6]) is “+”.

For the molecule cyclo(F[Orn]LVF[Orn]LV), the “Activity Anti-bacterial” value in the experiment on bacteria (setting [7]) was “+”.

In the case of `CC(C)CC(NC(=O)C(CCCNC(=N)N)NC(=O)OCc1ccccc1)C(=O)NC(CNC(=O)C#Cc1ccccc1)C(C)C` (centres unmarked) [Phenylpropiolyl], the “Activity Anti-bacterial” value in the experiment with bacteria (setting [6]) is “+”.

“cyclo(Phe-Arg-Leu-Val-Phe-Arg-Leu-Val) (FRLVFRLV; cyclic; printed: Phe-Arg-Leu-Val-Phe-Arg-Leu-Val)”: the “Activity Anti-bacterial” value in the experiment with bacteria (setting [7]) was “+”.

Turning to `CC(C)CC(NC(=O)C(CCCNC(=N)N)NC(=O)OCc1ccccc1)C(=O)NC(CNC(=O)[C@@H](Br)Cc1ccccc1)C(C)C` (stereo partly drawn) [Compound L-2-bromo-3-phenylpropionyl], in the experiment on bacteria (setting [6]), the “Activity Anti-bacterial” value is recorded as “+”.

As to `CC(=O)N[C@@H](Cc1ccccc1)C(=O)NCC(NC(=O)C(CC(C)C)NC(=O)C(CCCNC(=N)N)NC(=O)OCc1ccccc1)C(C)C` (stereo partly drawn) [Acetyl-L-phenylalanoyl], the “Activity Anti-bacterial” value in the experiment on bacteria (setting [6]) was “+”. For the same molecule, the “Activity Anti-viral” value in the experiment on virus was “+”.

On to `CC(C)CC(NC(=O)C(CCCNC(=N)N)NC(=O)OCc1ccccc1)C(=O)NC(CNC(=O)C=CC=Cc1ccccc1)C(C)C` (centres unmarked) [5-phenylpenta-2,4-dienoyl], for which the “Activity Anti-bacterial” value in the experiment on bacteria (setting [6]) is “+”.

`CC(C)CC(NC(=O)C(CCCNC(=N)N)NC(=O)OCc1ccccc1)C(=O)NC(CNC(=O)CCc1ccccc1)C(C)C` (centres unmarked) [n = 2]: the “Activity Anti-bacterial” value with bacteria (setting [6]) is reported as “+”.

For `CC(C)CC(NC(=O)C(CCCNC(=N)N)NC(=O)OCc1ccccc1)C(=O)NC(CNC(=O)/C=C/c1ccccc1)C(C)C` (centres unmarked) [Benzyloxtcarbonyl], the “Activity Anti-bacterial” value in the experiment on bacteria (setting [6]) was “+”.

For the molecule `CC(C)CC(NC(=O)C(CCCNC(=N)N)NC(=O)OCc1ccccc1)C(=O)NC(CNC(=O)/C=C/Cc1ccccc1)C(C)C` (stereo not drawn) [trans-3-benzylacroyl], the “Activity Anti-bacterial” value in the experiment with bacteria (setting [6]) is listed as “+”.
